Measurements: US6740680B1, “Pharmaceutical compositions to tetrac and methods of use thereof” (Becton Pharma, Inc., priority 1999, dated 2004)

What was measured:
TSH = test: Serum TSH in hypothyroid rats infused with Tetrac or T4; type: in vivo, rat; settings: for Serum TSH: hypothyroid rats, mean ± SEM
Method: Seventy-nine male SIVZ rats were purchased from the breeder (Institut für Labortierkunde des Universität Zürich, Zürich, Switzerland). […] The infusion lasted 13 days. […] An euthyroid control group was included. The animals were weighed every 2 days. Rats were sacrificed by decapitation and blood was collected and stored at […] until use. Tissues (liver, heart, brown adipose tissue, cerebral cortex and pituitary) were removed rapidly, frozen in liquid nitrogen and stored at […] until use.
Hornone assays. […] Endocrinol. […] Serum TSH measurements were performed with reagents kindly provided by the National Pituitary Program, NIAMDD, NIH (Bethesda, USA).

Monodeiodinase type 2 [1] = test: Monodeiodinase type 2 activity in brain cortex and brown adipose tissue of infused rats; type: in vivo, rat; settings: infused rats, remaining activity, adjusted group mean at the mean Ln (TSH) concentration
Method: (§1) Seventy-nine male SIVZ rats were purchased from the breeder (Institut für Labortierkunde des Universität Zürich, Zürich, Switzerland). They were rendered hypothyroid by a single injection of [^131I]Na (100 μCi/rat) and before and throughout the experiment 0.02% 2-mercapto-1-methylimidazol (MMI) was added to drinking water. In order to have an euthyroid control group of similar weight and identical age, 10 rats received only MMI in the drinking water and 2 weeks before implanting the minipumps, MMI was withdrawn. Osmotic minipumps (secretion rate 0.25 μl/hour, duration 14 days) were implanted intraperitoneally (i.p.) 2 months after the injection of [^131I]Na. The minipumps were filled with T4 or Tetrac dissolved in 0.05 N NaOH, 2% BSA and 100,000 cpm [^125I]T4 or [^125I]Tetrac as control of their secretion rates. The infusion lasted 13 days. 0, 1.5, 4.5, 13.5 and 40.5 nmol Tetrac/day/100 g or 0.5, 1.5, 4.5 and 13.5 nmol T4/day/100 g bodyweight (BW) (n=4/dose) were infused. An euthyroid control group was included. The animals were weighed every 2 days. Rats were sacrificed by decapitation and blood was collected and stored at […] until use. Tissues (liver, heart, brown adipose tissue, cerebral cortex and pituitary) were removed rapidly, frozen in liquid nitrogen and stored at […] until use.
(§2) Monodeiodinase type 1 and 2 activities. Monodeiodinase type 1 and type 2 activities were determined in tissue homogenates by measuring the release of radioiodide from [^125I]rT3 according to the method of Leonard and Rosenberg (Leonard, J. L. et al. Endocrinology (1980) 106: 444-451).
(§3) Monodeiodinase type 1 activity was measured in liver homogenates using 1 μM rT3 and 1 mM DTT with 10 min of incubation, whereas for heart, 0.01 μM rT3 and 10 mM DTT with 1 hour of incubation. Monodeiodinase type 2 activity was measured in brown adipose tissue (BAT) and cerebral cortex using 1 nM rT3, 10 mM DTT and 1 mM propylthiouracil (PTU) with 1 hour of incubation. Protein concentrations were measured by the method of Bradford (Bio-Rad Laboratories GmbH, Munich, Germany) with bovine gammaglobulin as the protein standard. In order to study the effect of circulating Tetrac on the enzyme activities, 2 rats were injected intraperitoneally with 10 μCi ^125I Tetrac and killed 6 hours later. The tissue homogenates were extracted with 3 volumes of ethanol-NH3 (97:3). After 10 minutes centrifugation at 15,000 g, the supernatant was vacuum dried and applied to TLC (Merck 254, Toluol, acetic acid, water: 2:2:1). In order to calculate the tissue concentrations, the highest serum Tetrac levels were used (406 pmol/ml). The calculated tissue concentrations were: liver: 1.9, heart: 2.29 and brain cortex: 0.47 fluol Tetrac/μg protein.

α-MHC mRNA = test: Northern blot, α-MHC mRNA in heart; type: in vivo, rat; settings: infused rats, adjusted group mean at the mean Ln (TSH) concentration
Method: as §1
(§4) Total RNA extraction and Northern Blot hybridization Total RNA was extracted with the method of Chomczynski and Sacchi (Chomczynski, P. and Sacchi, N. Anal. Biochem. (1987) 162: 156-159). […]
(§5) The amount of labeled mRNA was quantified by scanning laser densitometry (Phosphorimager, Molecular Dynamics; Sunnyvale, USA). Variations in RNA loading and membrane transfer were corrected by densitometric quantification of a negative photograph of 28S and 18S ribosomal RNA bands from ethidium bromide stained RNA gels. […]

GH mRNA = test: Northern blot, growth hormone mRNA in pituitary; type: in vivo, rat
Method: as §1, §4, §5

Monodeiodinase type 2 [2] = biological target: T1, Monodeiodinase type 2 (Rattus norvegicus, UniProt P70551); test: Addition of Tetrac to monodeiodinase type 2 assay with microsomal protein from brain cortex; type: biochemical; settings: 1 fmol Tetrac/μg protein added
T1 construct: monodeiodinase type 2 assay using microsomol protein from brain cortex; from tissue; host or cells: brain cortex microsomal protein
T1 sequence (P70551 1-266): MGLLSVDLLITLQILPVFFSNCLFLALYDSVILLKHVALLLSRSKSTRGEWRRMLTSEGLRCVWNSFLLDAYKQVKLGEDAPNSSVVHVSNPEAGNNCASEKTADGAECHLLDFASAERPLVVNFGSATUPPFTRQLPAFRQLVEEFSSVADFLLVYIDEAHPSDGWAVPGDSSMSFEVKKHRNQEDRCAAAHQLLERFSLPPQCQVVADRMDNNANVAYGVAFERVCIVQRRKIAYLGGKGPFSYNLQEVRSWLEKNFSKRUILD
Method: as §2
as §3, with “In order to calculate the tissue concentrations, the highest serum Tetrac levels were used (406 pmol/ml).” left out, “protein. […]” for “protein.”

O=C(O)Cc1cc(I)c(Oc2cc(I)c(O)c(I)c2)c(I)c1 [Tetrac, 3,3′,5,5′-tetraiodothyroacetic acid]
Serum TSH (TSH; infusion 1.5 nmol/day/100 g BW): 90.3 ± 8.6 ng/mL | Serum TSH (TSH; infusion 4.5 nmol/day/100 g BW): 4.6 ± 0.5 ng/mL | Serum TSH (TSH; infusion 13.5 nmol/day/100 g BW): 1.2 ± 0.3 ng/mL | Serum TSH (TSH; infusion 40.5 nmol/day/100 g BW): <0.8 ng/mL | Serum TSH concentration, mean of treatment group (TSH; mean over all dose levels of the treated rats, p=<0.04): 24 ng/mL | Residual monodeiodinase type 2 activity, adjusted mean (Monodeiodinase type 2 [1]; BAT): 28 | Residual monodeiodinase type 2 activity, adjusted mean (Monodeiodinase type 2 [1]; Brain Cortex): 27.7 | α-MHC mRNA, adjusted mean (α-MHC mRNA): 5.3 arbitrary units | GH mRNA, Tetrac/T4 (activity of Tetrac in % of T4) (GH mRNA): 71% | GH mRNA, adjusted mean (GH mRNA; infused rats, adjusted group mean at the mean Ln (TSH) concentration): 20280 arbitrary units | Monodeiodinase type 2 activity, % of the full activity (Monodeiodinase type 2 [2]): 90.5%
